Test results taken from PMC6199744, “Development of Chemical Proteomics for the Folateome and Analysis of the Kinetoplastid Folateome” (ACS Infectious Diseases, 2018).
Read-outs that look alike come from different tables or passages of the source.

Key:
Assay type in all cases: binding
[1] = target: T1, HeLa cell extract proteins (Homo sapiens, UniProt P36639)
T1 construct: endogenous in cells; host or cells: HeLa cell extract

[2] = target: T2, HeLa cell extract proteins (Homo sapiens, UniProt Q9Y678)
T2 construct: endogenous in cells; host or cells: HeLa cell extract
T2 sequence (Q9Y678 1-874): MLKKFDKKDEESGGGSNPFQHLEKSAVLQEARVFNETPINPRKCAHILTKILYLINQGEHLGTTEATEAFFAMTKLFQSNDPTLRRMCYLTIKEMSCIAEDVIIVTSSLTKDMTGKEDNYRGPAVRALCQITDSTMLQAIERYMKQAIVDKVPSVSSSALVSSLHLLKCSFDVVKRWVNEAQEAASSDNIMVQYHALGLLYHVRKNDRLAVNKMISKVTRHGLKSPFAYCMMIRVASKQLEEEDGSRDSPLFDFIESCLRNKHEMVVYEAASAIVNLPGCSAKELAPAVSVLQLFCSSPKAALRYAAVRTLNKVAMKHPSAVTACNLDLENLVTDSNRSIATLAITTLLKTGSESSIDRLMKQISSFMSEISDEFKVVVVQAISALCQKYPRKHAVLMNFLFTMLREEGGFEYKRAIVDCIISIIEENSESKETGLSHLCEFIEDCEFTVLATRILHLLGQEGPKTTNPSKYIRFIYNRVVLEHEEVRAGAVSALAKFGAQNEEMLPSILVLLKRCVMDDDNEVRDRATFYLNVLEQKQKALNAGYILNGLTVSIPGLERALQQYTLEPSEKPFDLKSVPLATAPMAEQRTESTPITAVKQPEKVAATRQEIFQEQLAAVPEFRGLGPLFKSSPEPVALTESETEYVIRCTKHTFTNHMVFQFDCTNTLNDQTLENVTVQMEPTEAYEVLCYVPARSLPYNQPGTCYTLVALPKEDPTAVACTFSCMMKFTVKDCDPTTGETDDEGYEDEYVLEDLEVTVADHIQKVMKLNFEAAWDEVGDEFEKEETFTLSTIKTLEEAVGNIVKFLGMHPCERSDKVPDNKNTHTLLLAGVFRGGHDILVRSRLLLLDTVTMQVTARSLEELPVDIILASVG

[3] = target: T3, HeLa cell extract proteins (Homo sapiens, UniProt Q8TEX9)
T3 construct: endogenous in cells; host or cells: HeLa cell extract
T3 sequence (Q8TEX9 1-1081): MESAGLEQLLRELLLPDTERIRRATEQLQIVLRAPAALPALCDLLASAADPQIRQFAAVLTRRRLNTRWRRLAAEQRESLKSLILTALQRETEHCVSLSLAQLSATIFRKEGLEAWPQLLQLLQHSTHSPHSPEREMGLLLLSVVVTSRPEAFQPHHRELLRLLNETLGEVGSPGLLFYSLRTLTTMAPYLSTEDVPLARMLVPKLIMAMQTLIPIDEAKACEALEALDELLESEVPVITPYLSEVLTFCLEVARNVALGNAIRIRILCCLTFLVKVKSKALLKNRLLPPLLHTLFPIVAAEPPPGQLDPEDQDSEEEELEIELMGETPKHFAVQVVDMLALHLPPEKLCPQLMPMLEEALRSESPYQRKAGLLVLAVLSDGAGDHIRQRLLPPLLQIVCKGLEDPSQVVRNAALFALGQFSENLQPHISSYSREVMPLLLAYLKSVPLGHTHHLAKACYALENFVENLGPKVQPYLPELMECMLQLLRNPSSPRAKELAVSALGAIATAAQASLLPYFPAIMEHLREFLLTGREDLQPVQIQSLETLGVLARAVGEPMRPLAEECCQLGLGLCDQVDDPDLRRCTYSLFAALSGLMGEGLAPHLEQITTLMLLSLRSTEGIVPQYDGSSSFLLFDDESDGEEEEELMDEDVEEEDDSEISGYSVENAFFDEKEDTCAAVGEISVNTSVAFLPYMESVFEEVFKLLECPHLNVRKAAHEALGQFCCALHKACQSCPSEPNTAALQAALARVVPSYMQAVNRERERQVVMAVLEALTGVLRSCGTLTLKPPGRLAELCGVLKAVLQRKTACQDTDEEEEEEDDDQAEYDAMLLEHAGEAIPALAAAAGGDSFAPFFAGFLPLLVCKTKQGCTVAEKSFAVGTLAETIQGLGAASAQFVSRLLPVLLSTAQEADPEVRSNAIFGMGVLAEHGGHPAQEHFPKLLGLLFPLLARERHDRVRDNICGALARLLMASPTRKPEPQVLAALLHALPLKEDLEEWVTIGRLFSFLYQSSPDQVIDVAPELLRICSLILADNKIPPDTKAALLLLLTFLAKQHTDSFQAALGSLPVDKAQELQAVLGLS

[4] = target: T4, HeLa cell extract proteins (Homo sapiens, UniProt P60981)
T4 construct: endogenous in cells; host or cells: HeLa cell extract
T4 sequence (P60981 1-165): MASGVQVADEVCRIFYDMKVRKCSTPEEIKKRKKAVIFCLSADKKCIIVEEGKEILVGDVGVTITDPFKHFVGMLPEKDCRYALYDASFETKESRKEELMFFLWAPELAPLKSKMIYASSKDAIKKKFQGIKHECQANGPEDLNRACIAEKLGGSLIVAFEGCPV

[5] = target: T5, HeLa cell extract proteins (Homo sapiens, UniProt P23381)
T5 construct: endogenous in cells; host or cells: HeLa cell extract
T5 sequence (P23381 1-471): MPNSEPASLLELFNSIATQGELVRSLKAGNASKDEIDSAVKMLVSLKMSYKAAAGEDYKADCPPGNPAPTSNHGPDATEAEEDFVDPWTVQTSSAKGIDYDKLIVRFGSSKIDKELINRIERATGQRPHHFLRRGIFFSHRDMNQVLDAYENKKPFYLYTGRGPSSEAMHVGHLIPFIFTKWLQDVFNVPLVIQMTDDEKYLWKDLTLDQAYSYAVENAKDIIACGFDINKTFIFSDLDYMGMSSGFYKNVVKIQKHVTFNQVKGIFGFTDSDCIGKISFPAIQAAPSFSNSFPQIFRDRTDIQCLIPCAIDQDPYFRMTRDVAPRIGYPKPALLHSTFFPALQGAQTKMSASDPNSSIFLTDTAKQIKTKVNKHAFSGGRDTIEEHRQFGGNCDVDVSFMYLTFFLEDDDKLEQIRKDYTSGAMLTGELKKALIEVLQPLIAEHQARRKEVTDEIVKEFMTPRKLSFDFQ

| SMILES | fold changes relative to vehicle control ([1]; captured protein NUDT1, HeLa) | fold changes relative to vehicle control ([2]; protein COPG, HeLa) | fold changes relative to vehicle control ([3]; captured protein IPO4, HeLa) | fold changes relative to vehicle control ([4]; HeLa, protein DSTN (DESTRIN.)) [fold] | fold changes relative to vehicle control ([5]; protein WARS, HeLa) | fold changes relative to vehicle control ([1]; protein NUDT1, HeLa) | fold changes relative to vehicle control ([3]; protein IPO4, HeLa) | fold changes relative to vehicle control ([4]; HeLa, protein DSTN) | fold changes relative to vehicle control [1] | fold changes relative to vehicle control [2] | fold changes relative to vehicle control [3] | fold changes relative to vehicle control [4] | fold changes relative to vehicle control [5] |
| --- | --- | --- | --- | --- | --- | --- | --- | --- | --- | --- | --- | --- | --- |
| Nc1nc2cccc(-c3ccccc3)c2n1Cc1ccc(Cl)c(Cl)c1 [compound 3] | 0.62 | 1.14 | 0.97 | 1.09 | 0.9 |  |  |  |  |  |  |  |  |
| CCCCCCOc1ccc(Cc2cnc(N)nc2N)cc1 [compound 1] | 1.02 | 0.93 | 0.83 | 1.28 | 0.96 |  |  |  |  |  |  |  |  |
| NCCCNc1ccc(C(=O)NC(CCC(=O)O)C(=O)O)cc1 (centres unmarked) [compound 7] |  | 1.03 |  |  | 0.98 | 1.2 | 0.94 | 0.91 |  |  |  |  |  |
| CCCCCCOc1cccc(Cc2cnc(N)nc2N)c1 [compound 2] | 0.11 | 1.39 | 1.01 | 2.07 | 1.71 |  |  |  |  |  |  |  |  |
| NCCOCCOCC(=O)Nc1nc2ncc(CNc3ccc(C(=O)NC(CCC(=O)O)C(=O)O)cc3)nc2c(=O)[nH]1 (centres unmarked) [compound 6] |  | 1.03 |  |  | 1.19 | 1.16 | 1.04 | 1.16 |  |  |  |  |  |
| Nc1nc2[nH]cc(CCc3ccc(C(=O)N[C@@H](CCC(=O)O)C(=O)O)cc3)c2c(=O)[nH]1 [PTX, pemetrexed] |  |  |  |  |  |  |  |  | 0.36 | 0.95 | 0.88 | 1.05 | 1.02 |
| Nc1nc2c(c(=O)[nH]1)N(C=O)C(CNc1ccc(C(=O)N[C@@H](CCC(=O)O)C(=O)O)cc1)CN2 (some centres unmarked) [LEU, leucovorin] |  | 0.91 |  |  | 0.95 | 1.19 | 0.89 | 0.96 |  |  |  |  |  |
